How the values were obtained:
[1] = tested on: Pseudocercosporella herpotrichoides; test: Activity against wheat eyespot in-vitro (PHI); type: cell-based; conditions: 10 ppm, 10 days, 20° C., mycelial growth
Procedure, shortened: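 Mycelial growth was scored after 10 days at 20 °C against untreated or diluent controls. The broth was half-strength potato dextrose, holding 10 ppm test compound (from acetone) and 5×10^4 fragments/ml of the eyespot fungus.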

Rhizoctonia solani = test: Activity against Rhizoctonia in-vitro (RSI); type: cell-based; conditions: 10 ppm, 10 days, 20° C., mycelial growth
Procedure, shortened: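 Compound at a final 10 ppm (acetone vehicle) in half-strength PDB, inoculated with 5×10^4 fragments/ml of shaken-culture R. solani mycelium. After incubation at 20° C for 10 days, growth scored as a rating versus untreated or diluent-treated controls.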

Leptosphaeria nodorum = test: Activity against wheat leafspot (LN); type: in vivo; conditions: direct therapeutic foliar spray, 600 ppm, 6-8 days
Procedure, shortened: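 Therapeutic foliar spray: compound at 600 ppm applied to single-leaf wheat (cv Norman) 24 h after inoculation with 1.5×10^6 conidia/ml. Disease control scored after 6-8 days at 22° C and 70% humidity as lesions per leaf versus untreated or diluent-sprayed controls.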

[2] = tested on: Erysiphe graminis f.sp. hordei; test: Direct protectant activity against barley powdery mildew (EGP); type: in vivo; conditions: direct protectant foliar spray, 8 days
Procedure, shortened: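 Rating reflects percentage of leaf area with sporulation compared with untreated or diluent-sprayed controls. Protectant spray was applied to single-leaf barley (cv Golden Promise) 24 h before conidia inoculation. Plants were kept at 18 °C and 40% RH throughout, with 8 days of disease development.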

Venturia inaequalis = test: Activity against apple scab in-vitro (VII); type: cell-based; conditions: 10 ppm, 10 days, 20° C., mycelial growth
Procedure, shortened: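 V. inaequalis propagules (5×10^4/ml, malt agar-grown) were exposed in half-strength PDB to 10 ppm final test compound delivered in acetone. Growth was scored after incubation for 10 days at 20° C, as a rating relative to untreated or diluent-sprayed controls.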

Phytophthora infestans = type: in vivo; conditions: tomato, direct protectant foliar spray
Plasmopara viticola = test: Antisporulant activity against vine downy mildew (PVA); type: in vivo; conditions: vine leaves, antisporulant foliar spray, 600 ppm, 750 l/ha
Procedure, shortened: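 Cabernet Sauvignon vines (~8 cm) inoculated on lower leaf surfaces with 5×10^4 zoosporangia/ml, held 24 h at 21° C high humidity then 24 h glasshouse. Infected leaves sprayed underside with 600 ppm compound in 1:1 water/acetone, 0.04% Tween 20, 750 l/ha; 96 h glasshouse, 24 h humidity. Sporulating leaf area rated versus control.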

[3] = tested on: Erysiphe graminis f.sp. hordei; test: Activity against barley powdery mildew, direct therapeutic (EGT); type: in vivo; conditions: direct therapeutic foliar spray, 600 ppm, up to 7 days
Procedure, shortened: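 A curative spray at 600 ppm was applied to single-leaf Golden Promise barley inoculated with powdery mildew conidia the previous day. After up to 7 days at 18 °C and 40% humidity, disease control was rated from percent leaf area sporulating relative to untreated or diluent-sprayed controls.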

Botrytis cinerea = test: Direct protectant activity against broad bean grey mould (BCB); type: in vivo; conditions: direct protectant foliar spray, 600 ppm, 4 days
Procedure, shortened: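 Protectant foliar test: lesion coverage assessed 4 days after inoculation and rated relative to untreated or diluent-sprayed plants. Compound applied at 600 ppm to cv The Sutton leaves 24 h before 10^6 conidia/ml suspension; incubation at 22 °C in high humidity.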

Pyricularia oryzae = type: in vivo; conditions: rice seedlings, direct therapeutic foliar spray, 600 ppm, 4-5 days
Alternaria solani = test: Activity against tomato early blight (AS); type: in vivo; conditions: Table VI; tomato seedlings, contact prophylactic foliar spray, 4 days
Procedure, shortened: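 Plants were challenged with A. solani conidia (10^4 spores/ml) 24 h after a protective foliar spray of compound in 50:50 acetone/water plus 0.04% Tween 20. Held humid at 21° C for 4 days, then percent leaf area with lesions was scored as a rating relative to controls.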

Row | Structure (SMILES) | disease control rating PHI [1] | disease control rating RSI (Rhizoctonia solani) | disease control rating LN (Leptosphaeria nodorum) | disease control rating EGP [2] | disease control rating VII (Venturia inaequalis) | disease control rating PIP (Phytophthora infestans) | disease control rating PVA (Plasmopara viticola) | disease control rating EGT [3] | disease control rating BCB (Botrytis cinerea) | disease control rating PO (Pyricularia oryzae) | disease control rating AS (Alternaria solani)
1 | c1ccc(C2CCC3(CC2)CC(NC2CCCCC2)CO3)cc1 (centres unmarked) [Compound 56] | 0 (less than 50% disease control) | 0 (less than 50% disease control) | 2 (greater than 80% disease control) | 2 (greater than 80% disease control) | 1 (about 50-80% disease control) | 0 (less than 50% disease control) | 0 (less than 50% disease control) | 2 (greater than 80% disease control) | 2 (greater than 80% disease control) | 0 (less than 50% disease control) | 0 (less than 50% disease control)
2 | CC1CC(C)CN(C2COC3(CCC(c4ccccc4)CC3)C2)C1 (centres unmarked) [Compound 57] | 0 (less than 50% disease control) | 0 (less than 50% disease control) | 1 (about 50-80% disease control) | 2 (greater than 80% disease control) | 1 (about 50-80% disease control) | 0 (less than 50% disease control) | 0 (less than 50% disease control) | 2 (greater than 80% disease control) | 0 (less than 50% disease control) | 0 (less than 50% disease control) | 0 (less than 50% disease control)
3 | CC1CN(C2COC3(CCC(c4ccccc4)CC3)C2)CC(C)O1 (centres unmarked) [Compound 58] | 0 (less than 50% disease control) | 0 (less than 50% disease control) | 2 (greater than 80% disease control) | 2 (greater than 80% disease control) | 1 (about 50-80% disease control) | 0 (less than 50% disease control) | 0 (less than 50% disease control) | 2 (greater than 80% disease control) | 0 (less than 50% disease control) | 0 (less than 50% disease control) | 0 (less than 50% disease control)
4 | CCCCCCN(C)C1COC2(CCCCC2)C1 (centres unmarked) [Compound 59] | 0 (less than 50% disease control) | 0 (less than 50% disease control) | 0 (less than 50% disease control) | 2 (greater than 80% disease control) | 0 (less than 50% disease control) | 0 (less than 50% disease control) | 0 (less than 50% disease control) | 2 (greater than 80% disease control) | 0 (less than 50% disease control) | 0 (less than 50% disease control) | 0 (less than 50% disease control)

From patent publication US5591741A, “Fungicidal spiroheterocyclic derivatives” (American Cyanamid Company, priority 1993, dated 1997)
